Experiment: xn = mol fraction of the nth substance listed
Settings: 101 kPa

Compound `O` + CS(=O)(=O)[O-].C[N+](C)(CCO)CCO has a viscosity (298.15 K, x2 = 0) of 0.877 mPa·s, a viscosity (303.15 K, x2 = 0) of 0.789 mPa·s and a viscosity (313.15 K, x2 = 0) of 0.654 mPa·s.
With `CS(=O)(=O)[O-].C[N+](C)(CCO)CCO` + O the viscosity (298.15 K, x1 = 0.0989) was 4.55 mPa·s, the viscosity (298.15 K, x1 = 0.2989) was 36.9 mPa·s and the viscosity (298.15 K, x1 = 0.3971) was 77.5 mPa·s. It also gave a viscosity (298.15 K, x1 = 0.4797) of 148 mPa·s, a viscosity (298.15 K, x1 = 0.5983) of 288 mPa·s and a viscosity (298.15 K, x1 = 0.6984) of 460 mPa·s. It also gave a viscosity (298.15 K, x1 = 0.7942) of 796 mPa·s, a viscosity (298.15 K, x1 = 0.8928) of 1034 mPa·s and a viscosity (298.15 K, x1 = 1) of 1495 mPa·s. It also gave a viscosity (303.15 K, x1 = 0.0989) of 3.91 mPa·s, a viscosity (303.15 K, x1 = 0.1991) of 12.42 mPa·s and a viscosity (303.15 K, x1 = 0.3971) of 60.6 mPa·s. For the same compound, the viscosity (303.15 K, x1 = 0.4797) was 113 mPa·s, the viscosity (303.15 K, x1 = 0.5983) was 212 mPa·s and the viscosity (303.15 K, x1 = 0.7942) was 558 mPa·s. The viscosity (303.15 K, x1 = 0.8928) was 718 mPa·s, the viscosity (303.15 K, x1 = 1) was 1021 mPa·s and the viscosity (308.15 K, x1 = 0.0989) was 3.45 mPa·s. The viscosity (308.15 K, x1 = 0.1991) was 10.56 mPa·s, the viscosity (308.15 K, x1 = 0.2989) was 24.6 mPa·s and the viscosity (308.15 K, x1 = 0.3971) was 48.3 mPa·s. It also gave a viscosity (308.15 K, x1 = 0.4797) of 78.7 mPa·s, a viscosity (308.15 K, x1 = 0.5983) of 160 mPa·s and a viscosity (308.15 K, x1 = 0.6984) of 246 mPa·s. It also gave a viscosity (308.15 K, x1 = 0.7942) of 403 mPa·s, a viscosity (308.15 K, x1 = 0.8928) of 510 mPa·s and a viscosity (308.15 K, x1 = 1) of 716 mPa·s. It also gave a viscosity (313.15 K, x1 = 0.0989) of 3.06 mPa·s, a viscosity (313.15 K, x1 = 0.1991) of 9.06 mPa·s and a viscosity (313.15 K, x1 = 0.2989) of 20.5 mPa·s. The viscosity (313.15 K, x1 = 0.3971) was 39 mPa·s, the viscosity (313.15 K, x1 = 0.5983) was 123.5 mPa·s and the viscosity (313.15 K, x1 = 0.7942) was 296 mPa·s. The viscosity (313.15 K, x1 = 0.8928) was 374 mPa·s, the viscosity (313.15 K, x1 = 1) was 513 mPa·s and the viscosity (318.15 K, x1 = 0.0989) was 2.74 mPa·s. The viscosity (318.15 K, x1 = 0.1991) was 7.85 mPa·s, the viscosity (318.15 K, x1 = 0.3971) was 32.1 mPa·s and the viscosity (318.15 K, x1 = 0.5983) was 86.9 mPa·s. It also gave a viscosity (318.15 K, x1 = 0.6984) of 142.8 mPa·s, a viscosity (318.15 K, x1 = 0.7942) of 223 mPa·s and a viscosity (318.15 K, x1 = 0.8928) of 279 mPa·s. The viscosity (323.15 K, x1 = 0.0989) was 2.51 mPa·s, the viscosity (323.15 K, x1 = 0.2989) was 14.75 mPa·s and the viscosity (323.15 K, x1 = 0.3971) was 26.7 mPa·s. The viscosity (323.15 K, x1 = 0.5983) was 69.4 mPa·s, the viscosity (323.15 K, x1 = 0.7942) was 171 mPa·s and the viscosity (323.15 K, x1 = 0.8928) was 212 mPa·s.

Reference: a compilation of properties of binary mixtures (doi:10.1007/s10953-020-00968-2)
